Earlier results in PubChem BioAssay AID1259409 (Chemical Carcinogenesis Research Information System (CCRIS), 2018).

Test system: rodent chemically induced tumor inhibition, incidence and multiplicity
Experiment: CCRIS tumor inhibitor studies
Details: Species: RAT

SMILES: CC(=O)[O-].CC(=O)[O-].O.O.[Zn+2]
- tumour outcome (control, treated, inhibition, significance) (Carcinogen: CADMIUM CHLORIDE, 10108-64-2, Dose [Inhibitor]: 0.1 MMOL/KG IN 0.9% STERILE SALINE ADMINISTERED IN 3 SEPARATE DOSES AT 6 HR PRIOR TO, CONCURRENTLY WITH AND 18 HR POST C, Route [Inhibitor]: SUBCUTANEOUS, Strain/Sex: WISTAR/MALE, Target Tissue: Type of Lesion: PROSTATE GLAND: ADENOMA, Dose [Carcinogen]: 30 UMOL/KG IN 0.9% STERILE SALINE ONCE, Promoter: NONE USED): 7/30 (23%), 6/30 (20%), 13%, not calculated
- tumour outcome (control, treated, inhibition, significance) (Carcinogen: CADMIUM CHLORIDE, 10108-64-2, Dose [Inhibitor]: 0.3 MMOL/KG IN 0.9% STERILE SALINE ADMINISTERED IN 3 SEPARATE DOSES AT 6 HR PRIOR TO, CONCURRENTLY WITH AND 18 HR POST C, Route [Inhibitor]: SUBCUTANEOUS, Strain/Sex: WISTAR/MALE, Target Tissue: Type of Lesion: PROSTATE GLAND: ADENOMA, Dose [Carcinogen]: 30 UMOL/KG IN 0.9% STERILE SALINE ONCE, Promoter: NONE USED): 7/30 (23%), 5/28 (18%), 22%, not calculated
- tumour outcome (control, treated, inhibition, significance) (Carcinogen: CADMIUM CHLORIDE, 10108-64-2, Dose [Inhibitor]: 1.0 MMOL/KG IN 0.9% STERILE SALINE ADMINISTERED IN 3 SEPARATE DOSES AT 6 HR PRIOR TO, CONCURRENTLY WITH AND 18 HR POST C, Route [Inhibitor]: SUBCUTANEOUS, Strain/Sex: WISTAR/MALE, Target Tissue: Type of Lesion: PROSTATE GLAND: ADENOMA, Dose [Carcinogen]: 30 UMOL/KG IN 0.9% STERILE SALINE ONCE, Promoter: NONE USED): 11/26 (42%), 7/28 (25%), 40%, not calculated
- tumour outcome (control, treated, inhibition, significance) (Carcinogen: CADMIUM CHLORIDE, 10108-64-2, Dose [Inhibitor]: 100 PPM IN DRINKING WATER BEGINNING 2 WK PRIOR TO CARCINOGEN DOSE AND CONTINUING FOR DURATION OF STUDY (STUDY DURATION:, Route [Inhibitor]: ORAL, Strain/Sex: WISTAR/MALE, Target Tissue: Type of Lesion: PROSTATE GLAND: ADENOMA, Dose [Carcinogen]: 30 UMOL/KG IN 0.9% STERILE SALINE ONCE, Promoter: NONE USED): 7/30 (23%), 7/30 (23%), 0%
- tumour outcome (control, treated, inhibition, significance) (Carcinogen: CADMIUM(II) CHLORIDE, 10108-64-2, Dose [Inhibitor]: 0.1 MMOL/KG IN 0.9% STERILE SALINE ADMINISTERED IN 3 SEPARATE DOSES AT 6 HR PRIOR TO CARCINOGEN DOSE, CONCURRENTLY WITH, Route [Inhibitor]: SUBCUTANEOUS, Strain/Sex: WISTAR/MALE, Target Tissue: Type of Lesion: INJECTION SITE: SARCOMA OR EPIDERMAL TUMOR, Dose [Carcinogen]: 30 UMOL/KG IN 0.9% STERILE SALINE ONCE, Promoter: NONE USED): 13/30 (43%), 9/30 (30%), 30%, not calculated
- tumour outcome (control, treated, inhibition, significance) (Carcinogen: CADMIUM(II) CHLORIDE, 10108-64-2, Dose [Inhibitor]: 0.1 MMOL/KG IN 0.9% STERILE SALINE ADMINISTERED IN 3 SEPARATE DOSES AT 6 HR PRIOR TO CARCINOGEN DOSE, CONCURRENTLY WITH, Route [Inhibitor]: SUBCUTANEOUS, Strain/Sex: WISTAR/MALE, Target Tissue: Type of Lesion: TESTES: LEYDIG CELL ADENOMA OR MIXED SERTOLI-LEYDIG CELL TUMOR, Dose [Carcinogen]: 30 UMOL/KG IN 0.9% STERILE SALINE ONCE, Promoter: NONE USED): 22/30 (73%), 23/30 (77%), -5%, not calculated
- tumour outcome (control, treated, inhibition, significance) (Carcinogen: CADMIUM(II) CHLORIDE, 10108-64-2, Dose [Inhibitor]: 0.3 MMOL/KG IN 0.9% STERILE SALINE ADMINISTERED IN 3 SEPARATE DOSES AT 6 HR PRIOR TO CARCINOGEN DOSE, CONCURRENTLY WITH, Route [Inhibitor]: SUBCUTANEOUS, Strain/Sex: WISTAR/MALE, Target Tissue: Type of Lesion: INJECTION SITE: SARCOMA, Dose [Carcinogen]: 30 UMOL/KG IN 0.9% STERILE SALINE ONCE, Promoter: NONE USED): 13/30 (43%), 10/29 (34%), 21%, not calculated
- tumour outcome (control, treated, inhibition, significance) (Carcinogen: CADMIUM(II) CHLORIDE, 10108-64-2, Dose [Inhibitor]: 0.3 MMOL/KG IN 0.9% STERILE SALINE ADMINISTERED IN 3 SEPARATE DOSES AT 6 HR PRIOR TO CARCINOGEN DOSE, CONCURRENTLY WITH, Route [Inhibitor]: SUBCUTANEOUS, Strain/Sex: WISTAR/MALE, Target Tissue: Type of Lesion: TESTES: LEYDIG CELL ADENOMA, Dose [Carcinogen]: 30 UMOL/KG IN 0.9% STERILE SALINE ONCE, Promoter: NONE USED): 22/30 (73%), 14/29 (48%), 34%, not calculated
- tumour outcome (control, treated, inhibition, significance) (Carcinogen: CADMIUM(II) CHLORIDE, 10108-64-2, Dose [Inhibitor]: 1.0 MMOL/KG IN 0.9% STERILE SALINE ADMINISTERED IN 3 SEPARATE DOSES AT 6 HR PRIOR TO CARCINOGEN DOSE, CONCURRENTLY WITH, Route [Inhibitor]: SUBCUTANEOUS, Strain/Sex: WISTAR/MALE, Target Tissue: Type of Lesion: INJECTION SITE: SARCOMA OR HEMANGIOMA OR EPIDERMAL TUMOR, Dose [Carcinogen]: 30 UMOL/KG IN 0.9% STERILE SALINE ONCE, Promoter: NONE USED): 13/30 (43%), 9/29 (31%), 28%, not calculated
- tumour outcome (control, treated, inhibition, significance) (Carcinogen: CADMIUM(II) CHLORIDE, 10108-64-2, Dose [Inhibitor]: 1.0 MMOL/KG IN 0.9% STERILE SALINE ADMINISTERED IN 3 SEPARATE DOSES AT 6 HR PRIOR TO CARCINOGEN DOSE, CONCURRENTLY WITH, Route [Inhibitor]: SUBCUTANEOUS, Strain/Sex: WISTAR/MALE, Target Tissue: Type of Lesion: INJECTION SITE: SARCOMA, Dose [Carcinogen]: 30 UMOL/KG IN 0.9% STERILE SALINE ONCE, Promoter: NONE USED): 3/29 (10%), 1/29 (3%), 70%, not calculated
- tumour outcome (control, treated, inhibition, significance) (Carcinogen: CADMIUM(II) CHLORIDE, 10108-64-2, Dose [Inhibitor]: 1.0 MMOL/KG IN 0.9% STERILE SALINE ADMINISTERED IN 3 SEPARATE DOSES AT 6 HR PRIOR TO CARCINOGEN DOSE, CONCURRENTLY WITH, Route [Inhibitor]: SUBCUTANEOUS, Strain/Sex: WISTAR/MALE, Target Tissue: Type of Lesion: TESTES: LEYDIG CELL ADENOMA OR SEMINOMA, Dose [Carcinogen]: 30 UMOL/KG IN 0.9% STERILE SALINE ONCE, Promoter: NONE USED): 4/29 (14%), 7/30 (23%), -64%, not calculated
- tumour outcome (control, treated, inhibition, significance) (Carcinogen: CADMIUM(II) CHLORIDE, 10108-64-2, Dose [Inhibitor]: 1.0 MMOL/KG IN 0.9% STERILE SALINE ADMINISTERED IN 3 SEPARATE DOSES AT 6 HR PRIOR TO CARCINOGEN DOSE, CONCURRENTLY WITH, Route [Inhibitor]: SUBCUTANEOUS, Strain/Sex: WISTAR/MALE, Target Tissue: Type of Lesion: TESTES: LEYDIG CELL ADENOMA, Dose [Carcinogen]: 30 UMOL/KG IN 0.9% STERILE SALINE ONCE, Promoter: NONE USED): 22/30 (73%), 3/28 (11%), 85%, not calculated
- tumour outcome (control, treated, inhibition, significance) (Carcinogen: CADMIUM(II) CHLORIDE, 10108-64-2, Dose [Inhibitor]: 100 PPM IN DRINKING WATER BEGINNING 2 WK PRIOR TO CARCINOGEN DOSE AND CONTINUING FOR DURATION OF STUDY (STUDY DURATION:, Route [Inhibitor]: ORAL, Strain/Sex: WISTAR/MALE, Target Tissue: Type of Lesion: INJECTION SITE: SARCOMA AND FIBROMA, Dose [Carcinogen]: 30 UMOL/KG IN 0.9% STERILE SALINE ONCE, Promoter: NONE USED): 13/30 (43%), 1/30 (3%), 93%, not calculated
- tumour outcome (control, treated, inhibition, significance) (Carcinogen: CADMIUM(II) CHLORIDE, 10108-64-2, Dose [Inhibitor]: 100 PPM IN DRINKING WATER BEGINNING 2 WK PRIOR TO CARCINOGEN DOSE AND CONTINUING FOR DURATION OF STUDY (STUDY DURATION:, Route [Inhibitor]: ORAL, Strain/Sex: WISTAR/MALE, Target Tissue: Type of Lesion: TESTES: LEYDIG CELL ADENOMA, Dose [Carcinogen]: 30 UMOL/KG IN 0.9% STERILE SALINE ONCE, Promoter: NONE USED): 22/30 (73%), 25/30 (83%), -14%, not calculated

SMILES: O=C1O[C@@H]2[C@@H](O)CO[C@]2(O)[C@@]1(O)Cc1c[nH]c2ccccc12
- tumour outcome (control, treated, inhibition, significance) (Carcinogen: 7,12-DIMETHYLBENZ[A]ANTHRACENE [57-97-6], Dose [Inhibitor]: 0, 16 MG IN 0.5 ML DMSO 1X/D FOR 3 D BEGINNING 2 D PRIOR TO CARCINOGEN DOSE (STUDY DURATION: 93 D), Route [Inhibitor]: GAVAGE, Strain/Sex: SPRAGUE-DAWLEY/FEMALE, Target Tissue: Type of Lesion: MAMMARY GLAND: TUMOR, Dose [Carcinogen]: 15 MG IN 0.5 ML DMSO TOGETHER WITH THE LAST DOES OF INHIBITOR (STUDY DURATION: 93 D), Promoter: NONE): 63%, 60%, 5%, not significant
- tumour outcome (control, treated, inhibition, significance) (Carcinogen: 7,12-DIMETHYLBENZ[A]ANTHRACENE [57-97-6], Dose [Inhibitor]: 0, 32.5 MG IN 0.5 ML DMSO 1X/D FOR 3 D BEGINNING 2 D PRIOR TO CARCINOGEN DOSE (STUDY DURATION: 93 D), Route [Inhibitor]: GAVAGE, Strain/Sex: SPRAGUE-DAWLEY/FEMALE, Target Tissue: Type of Lesion: MAMMARY GLAND: TUMOR, Dose [Carcinogen]: 15 MG IN 0.5 ML DMSO TOGETHER WITH THE LAST DOES OF INHIBITOR (STUDY DURATION: 93 D), Promoter: NONE): 63%, 33%, 48%, p<0.05
- tumour outcome (control, treated, inhibition, significance) (Carcinogen: 7,12-DIMETHYLBENZ[A]ANTHRACENE [57-97-6], Dose [Inhibitor]: 0, 65 MG IN 0.5 ML DMSO 1X/D FOR 3 D BEGINNING 2 D PRIOR TO CARCINOGEN DOSE (STUDY DURATION: 93 D), Route [Inhibitor]: GAVAGE, Strain/Sex: SPRAGUE-DAWLEY/FEMALE, Target Tissue: Type of Lesion: MAMMARY GLAND: TUMOR, Dose [Carcinogen]: 15 MG IN 0.5 ML DMSO TOGETHER WITH THE LAST DOES OF INHIBITOR (STUDY DURATION: 93 D), Promoter: NONE): 63%, 39%, 38%, p<0.05
